Twelve compounds from ChEMBL document CHEMBL3046333, “Synthesis and bioevaluation of novel analogues of justicidin A” (Med Chem Res, 2010) can be followed below.

By IC50 is commonly meant the midpoint of a concentration-inhibition curve. The low end stands for inhibition by little substance, the high end for a need for much substance.

This assay relates to HepG2. Put plainly: Cytotoxicity against Homo sapiens (human) HepG2 cells after 3 days by MTT assay. The assay is classed as functional, cell-based. The note with it: HepG2, 72 h.

`CCOc1c2c(c(-c3ccc4c(c3)OCO4)c3cc(OC)c(OC)cc13)C(=O)OC2`: the midpoint of inhibition, the IC50, lay at 141 µM.

`CCCOc1c2c(c(-c3ccc4c(c3)OCO4)c3cc(OC)c(OC)cc13)C(=O)OC2` came in with a 50% inhibitory concentration (IC50) of 152 µM. The compound `CCCCOc1c2c(c(-c3ccc4c(c3)OCO4)c3cc(OC)c(OC)cc13)C(=O)OC2` registered an IC50 of 127 µM. With `CCCCCOc1c2c(c(-c3ccc4c(c3)OCO4)c3cc(OC)c(OC)cc13)C(=O)OC2` the figure was 291 µM; with `COc1cc2c(OCCBr)c3c(c(-c4ccc5c(c4)OCO5)c2cc1OC)C(=O)OC3`, 263 µM. Compound `COc1cc2c(OCCCBr)c3c(c(-c4ccc5c(c4)OCO5)c2cc1OC)C(=O)OC3` showed an IC50 of 161 µM. Consider `COc1cc2c(OCCCCBr)c3c(c(-c4ccc5c(c4)OCO5)c2cc1OC)C(=O)OC3`, for which the half-inhibitory concentration (IC50) was 155 µM. With `COc1cc2c(OCCCCCBr)c3c(c(-c4ccc5c(c4)OCO5)c2cc1OC)C(=O)OC3` the figure was 207 µM; with `COc1cc2c(OCCCCCCBr)c3c(c(-c4ccc5c(c4)OCO5)c2cc1OC)C(=O)OC3`, 167 µM. For `COc1cc2c(O)c3c(c(-c4ccc5c(c4)OCO5)c2cc1OC)C(=O)OC3` [DIPHYLLIN], the half-maximal inhibitory concentration (IC50) was greater than 500 µM. In turn, `COc1cc([C@@H]2c3cc4c(cc3[C@@H](O[C@@H]3O[C@@H]5CO[C@@H](C)O[C@H]5[C@H](O)[C@H]3O)[C@H]3COC(=O)[C@H]23)OCO4)cc(OC)c1O` [ETOPOSIDE] showed a 50% inhibitory concentration (IC50) of 427 µM. `COc1cc2c(OC)c3c(c(-c4ccc5c(c4)OCO5)c2cc1OC)C(=O)OC3` [JUSTICIDIN A] gave an IC50 of 163 µM. Against the preceding compound, the IC50 is about 2.6-fold lower.
